Results published in PubChem BioAssay (NCI).
Where “and” joins values, the source holds several entries; their conditions need not be identical. Equal entries are not always repeated.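 Results reflect a 48-hour exposure of cells in 96-well plates to compound at five concentrations. The concentration for full growth arrest is given as TGI.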

Tests used:
Test in all cases: DTP human tumour cell line panel, 48 h
786-0 renal = system: 786-0 renal
ACHN renal = system: ACHN renal
CAKI-1 renal = system: CAKI-1 renal
CCRF-CEM leukemia = system: CCRF-CEM leukemia
HCC-2998 colon = system: HCC-2998 colon
HCT-116 colon = system: HCT-116 colon
HOP-62 NSCLC = system: HOP-62 NSCLC
HOP-92 NSCLC = system: HOP-92 NSCLC
HS 578T breast = system: HS 578T breast
HT29 colon = system: HT29 colon
IGROV1 ovarian = system: IGROV1 ovarian
MDA-N = system: MDA-N
NCI-H23 lung = system: NCI-H23 lung
NCI-H460 lung = system: NCI-H460 lung
NCI/ADR-RES ovarian = system: NCI/ADR-RES ovarian
PC-3 prostate = system: PC-3 prostate
RXF 393 renal = system: RXF 393 renal
SK-OV-3 ovarian = system: SK-OV-3 ovarian
SN12C renal = system: SN12C renal
COLO 205 colon = system: COLO 205 colon

SMILES | TGI (786-0 renal) | TGI (ACHN renal) | TGI (CAKI-1 renal) | TGI (CCRF-CEM leukemia) | TGI (HCC-2998 colon) | TGI (HCT-116 colon) | TGI (HOP-62 NSCLC) | TGI (HOP-92 NSCLC) | TGI (HS 578T breast) | TGI (HT29 colon) | TGI (IGROV1 ovarian) | TGI (MDA-N) | TGI (NCI-H23 lung) | TGI (NCI-H460 lung) | TGI (NCI/ADR-RES ovarian) | TGI (PC-3 prostate) | TGI (RXF 393 renal) | TGI (SK-OV-3 ovarian) | TGI (SN12C renal) | TGI (COLO 205 colon)
COCOc1c(C(OCOC)c2cnc(Sc3ccccc3)n2C)ccc(OC)c1OC (configuration not stated) | > 100 µM | > 100 µM | > 100 µM | > 100 µM | > 100 µM | > 100 µM | > 100 µM | > 100 µM | > 100 µM | > 100 µM | > 100 µM | > 100 µM | > 100 µM | > 100 µM | > 100 µM | > 100 µM | > 100 µM | > 100 µM | > 100 µM | 
N=c1oc2ccc(Cl)cc2cc1C(N)=O | 73 µM | > 100 µM | > 100 µM | > 100 µM | 47.4 µM | 61.7 µM |  | > 100 µM | 63.9 µM | > 100 µM | > 100 µM | 69.1 µM | 75.1 µM | > 100 µM | > 100 µM | 72.8 µM | > 100 µM | > 100 µM | 45.1 µM | > 100 µM
CC(=O)Oc1ccc(/C=C/C(=O)OCCOC(=O)/C=C/c2ccc(OC(C)=O)c(OC(C)=O)c2)cc1OC(C)=O | 22.3 µM | 35.8 µM | 11.6 µM | 6.12 µM | 28.6 µM | 20.9 µM | 5.23 µM | 26.7 µM | 62.7 µM | > 56.7 µM | 10.7 µM | 23.5 µM | 18.7 µM | 32 µM | 16.3 µM | 58.8 µM | 21.3 µM | 35 µM | 69 µM | 28.2 µM
CN(C)CCCN1c2ccc([N+](=O)[O-])cc2CCc2cc([N+](=O)[O-])ccc21 | 24.5 µM and 27.5 µM | 23.5 µM and 29 µM | 29.1 µM | 28.4 µM | 21.9 µM and 24.7 µM | 27.4 µM and 27.1 µM | 30.4 µM and 25.6 µM | 20 µM and 18 µM | 34.4 µM and 35.6 µM | 30.8 µM and 27.7 µM | 28.9 µM and 29.1 µM | 27.2 µM and 27 µM | 33.7 µM and 34.9 µM | 30 µM and 26.2 µM | 30.8 µM and 32.6 µM | 31.3 µM and 27 µM | 19.9 µM and 25.6 µM | 32.4 µM and 29 µM | 29.3 µM and 28.4 µM | 32 µM and 29.4 µM
COc1ccc2c(c1)CCc1c-2n(CCN2CCOCC2)c2ccc(OC)cc12 | > 100 µM | > 100 µM | > 100 µM | 53.1 µM | 33.2 µM | > 100 µM | > 100 µM | > 100 µM | > 100 µM | 53.6 µM | > 100 µM | > 100 µM | > 100 µM | > 100 µM | > 100 µM | > 100 µM | > 100 µM | > 100 µM | > 100 µM | > 100 µM
O=C(Nc1ncc([N+](=O)[O-])s1)c1ccccc1O | > 100 µM | > 84.5 µM | > 100 µM |  | > 100 µM | 46.4 µM | > 59.6 µM | 7.98 µM | 32.5 µM | > 76.2 µM | > 100 µM | 99.4 µM | > 70.5 µM | > 100 µM | > 82.4 µM | > 94.7 µM | 23.6 µM | > 100 µM | 77.7 µM | 36.1 µM
COc1ccc(C(=C2C(=O)N(c3ccccc3)C(=O)C2=C(C)C)c2ccc(OC)cc2)cc1 | 23.7 µM | > 31.7 µM | 42 µM |  | > 52 µM | > 51.1 µM | > 66.2 µM | > 31.6 µM | > 39 µM | 20.2 µM | > 36.6 µM | 4.11 µM | > 39.4 µM | > 100 µM | > 100 µM | > 40.1 µM | 5.9 µM | > 56.1 µM | > 38.2 µM | > 33.3 µM
COc1cc2c(cc1OC)C(=O)/C(=C/c1cc(Cl)cc(Cl)c1)C2 | > 89.7 µM | > 100 µM | > 100 µM | > 100 µM | > 100 µM | > 100 µM | > 100 µM | 99.6 µM | > 100 µM | > 100 µM | > 100 µM | 4.86 µM | > 100 µM | > 100 µM | 10.4 µM | > 100 µM | > 100 µM | > 54.6 µM | > 100 µM | > 100 µM
COC(=O)[C@@H]1COC(C(C)(C)C)N1C(=O)C(c1ccccc1)c1ccccc1 (some centres not stated) | > 100 µM | > 100 µM | > 100 µM | 84.7 µM | > 100 µM | > 100 µM | > 100 µM | > 100 µM | > 100 µM | > 100 µM | > 100 µM | 69.2 µM | > 100 µM | > 100 µM | > 100 µM | > 100 µM | 38.1 µM | 88.4 µM | > 100 µM | > 100 µM
O=C(O)c1nc2ccccc2nc1NCc1ccc(F)cc1 | > 100 µM |  | > 100 µM | > 100 µM | > 100 µM | > 100 µM | > 100 µM | > 100 µM | > 100 µM | > 100 µM | > 100 µM | > 100 µM | > 100 µM | > 100 µM | > 100 µM | > 100 µM | > 100 µM |  | > 100 µM | 93.5 µM
NNc1ncc2c(n1)-c1ccccc1OC2 | > 100 µM | > 100 µM | > 100 µM | > 100 µM |  | > 100 µM | > 100 µM | > 100 µM | > 100 µM | > 100 µM | > 100 µM | > 100 µM | > 100 µM | > 100 µM | > 100 µM | > 100 µM | > 100 µM | > 100 µM | > 100 µM | > 100 µM
Cc1cc2c(cc1C)C(=O)/C(=C/c1ccccc1C(=O)O)C2 | > 100 µM | > 100 µM | > 100 µM | > 100 µM | > 100 µM | > 100 µM | > 100 µM | > 100 µM | > 100 µM | > 100 µM | > 100 µM | > 100 µM | 66.7 µM | > 100 µM | > 100 µM | > 100 µM | > 100 µM |  | > 100 µM | 36.3 µM
